pEC50: −log10 of the molar value.

For one assay, the target named is human muscarinic M3 receptor (Homo sapiens, UniProt P20309). The experiment in a line: Alphascreen Surefire phospho-ERK1/2 functional assay, M3.
Sequence of human muscarinic M3 receptor (P20309 whole entry): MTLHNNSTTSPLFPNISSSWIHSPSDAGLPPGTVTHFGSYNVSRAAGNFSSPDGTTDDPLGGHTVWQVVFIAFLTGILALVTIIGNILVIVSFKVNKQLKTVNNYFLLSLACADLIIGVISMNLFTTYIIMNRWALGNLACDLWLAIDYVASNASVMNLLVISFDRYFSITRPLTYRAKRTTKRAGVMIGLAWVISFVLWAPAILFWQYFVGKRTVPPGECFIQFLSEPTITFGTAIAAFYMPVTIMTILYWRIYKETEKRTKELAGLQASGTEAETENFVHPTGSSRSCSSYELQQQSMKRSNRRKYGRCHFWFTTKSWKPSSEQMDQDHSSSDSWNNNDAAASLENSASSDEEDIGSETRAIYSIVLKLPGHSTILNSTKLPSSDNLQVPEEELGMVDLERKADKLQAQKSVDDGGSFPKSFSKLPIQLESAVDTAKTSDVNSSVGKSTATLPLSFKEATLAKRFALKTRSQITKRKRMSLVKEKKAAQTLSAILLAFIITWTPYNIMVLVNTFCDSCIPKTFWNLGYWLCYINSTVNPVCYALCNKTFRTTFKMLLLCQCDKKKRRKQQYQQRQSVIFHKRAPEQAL
Settings: not given
Compound `CCOC(=O)N1CC2(CCC(N3CCC4(CC3)OC(=O)NC4CC)C2)C1` (mixture of isomers) [8-1 mixture of diastereomers] showed a pEC50 below 4.70.
On the same count and under the same terms, then `COC(=O)N1CCC2(CC(N3CCC4(CC3)CNC(=O)O4)C2)C1` (single isomer, unassigned) [4-1 Isomer 2], with below 4.70; and `CCN1NC(=O)CC12CCN(C1CC3(CCN(C(=O)OC)C3)C1)CC2` (single isomer, unassigned) [6-1 Isomer 2], with below 4.70; and `CCCN1C(=O)OC2(CCN(C3CC4(CCN(C(=O)OCC)C4)C3)CC2)C1CC` (single isomer, unassigned) [4-23 Isomer 3], with below 4.70.

The same assay, now with this note: CHO, read-out: M3 % Emax cf. ACh, CHO cells stably expressing human M3; Emax relative to ACh.
Regarding `CCOC(=O)N1CC2(CCC(N3CCC4(CC3)OC(=O)NC4CC)C2)C1` (mixture of isomers) [8-1 mixture of diastereomers], the Emax is 2%.
As for `COC(=O)N1CCC2(CC(N3CCC4(CC3)CNC(=O)O4)C2)C1` (single isomer, unassigned) [4-1 Isomer 2], the Emax stood at 11%.
As for `CCN1NC(=O)CC12CCN(C1CC3(CCN(C(=O)OC)C3)C1)CC2` (single isomer, unassigned) [6-1 Isomer 2], the Emax is 11%.
On the same count and under the same terms, under `CCCN1C(=O)OC2(CCN(C3CC4(CCN(C(=O)OCC)C4)C3)CC2)C1CC` (single isomer, unassigned) [4-23 Isomer 3] stands 4%.

Another assay has as its target T1, human muscarinic M1 receptor (Homo sapiens, UniProt P11229).
T1 construct: expressed in transfected cells
T1 sequence (P11229 1-460): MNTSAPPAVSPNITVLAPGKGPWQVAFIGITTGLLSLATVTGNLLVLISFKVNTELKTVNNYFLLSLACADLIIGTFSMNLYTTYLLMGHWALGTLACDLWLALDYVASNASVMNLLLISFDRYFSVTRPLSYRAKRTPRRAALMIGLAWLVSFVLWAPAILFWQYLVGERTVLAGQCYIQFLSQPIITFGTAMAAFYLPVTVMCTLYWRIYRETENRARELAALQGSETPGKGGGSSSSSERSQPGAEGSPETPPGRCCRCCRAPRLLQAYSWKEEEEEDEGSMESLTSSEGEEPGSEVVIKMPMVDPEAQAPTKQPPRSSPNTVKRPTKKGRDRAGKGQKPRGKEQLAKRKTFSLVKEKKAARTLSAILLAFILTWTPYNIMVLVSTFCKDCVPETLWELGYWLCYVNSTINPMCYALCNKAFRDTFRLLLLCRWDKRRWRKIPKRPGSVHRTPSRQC
The assay can be described thus: Alphascreen Surefire phospho-ERK1/2 functional assay, M1. Type of assay: cell-based. The conditions noted are these: CHO cells stably expressing human M1; Emax relative to ACh.
With `CCCN1C(=O)OC2(CCN(C3CC4(CCN(C(=O)OCC)C4)C3)CC2)C1CC` (single isomer, unassigned) [4-23 Isomer 3], the “M1 % Emax cf. ACh” value is listed as “(88) %”.

The same assay, now with this note: CHO cells stably expressing human M1; phospho-ERK1/2; read-out: pEC50 M1 (converted).
On to `CCOC(=O)N1CC2(CCC(N3CCC4(CC3)OC(=O)NC4CC)C2)C1` (mixture of isomers) [8-1 mixture of diastereomers], for which the EC50 was 10 nM.
Still for that read-out and setting: under `COC(=O)N1CCC2(CC(N3CCC4(CC3)CNC(=O)O4)C2)C1` (single isomer, unassigned) [4-1 Isomer 2] stands 126 nM; under `CCN1NC(=O)CC12CCN(C1CC3(CCN(C(=O)OC)C3)C1)CC2` (single isomer, unassigned) [6-1 Isomer 2], 631 nM; under `CCCN1C(=O)OC2(CCN(C3CC4(CCN(C(=O)OCC)C4)C3)CC2)C1CC` (single isomer, unassigned) [4-23 Isomer 3], 316 nM.

The same assay, now with this note: CHO, read-out: M1 % Emax cf. ACh, CHO cells stably expressing human M1; Emax relative to ACh.
Consider `CCOC(=O)N1CC2(CCC(N3CCC4(CC3)OC(=O)NC4CC)C2)C1` (mixture of isomers) [8-1 mixture of diastereomers], for which the Emax turned out to be 70%.
Still for that read-out and setting: then `COC(=O)N1CCC2(CC(N3CCC4(CC3)CNC(=O)O4)C2)C1` (single isomer, unassigned) [4-1 Isomer 2], with 104%.
Turning to `CCN1NC(=O)CC12CCN(C1CC3(CCN(C(=O)OC)C3)C1)CC2` (single isomer, unassigned) [6-1 Isomer 2], the Emax is 77%.

Another assay concerns the target T2, human muscarinic M4 receptor (Homo sapiens, UniProt P08173).
T2 construct: expressed in transfected cells
T2 sequence (P08173 1-479): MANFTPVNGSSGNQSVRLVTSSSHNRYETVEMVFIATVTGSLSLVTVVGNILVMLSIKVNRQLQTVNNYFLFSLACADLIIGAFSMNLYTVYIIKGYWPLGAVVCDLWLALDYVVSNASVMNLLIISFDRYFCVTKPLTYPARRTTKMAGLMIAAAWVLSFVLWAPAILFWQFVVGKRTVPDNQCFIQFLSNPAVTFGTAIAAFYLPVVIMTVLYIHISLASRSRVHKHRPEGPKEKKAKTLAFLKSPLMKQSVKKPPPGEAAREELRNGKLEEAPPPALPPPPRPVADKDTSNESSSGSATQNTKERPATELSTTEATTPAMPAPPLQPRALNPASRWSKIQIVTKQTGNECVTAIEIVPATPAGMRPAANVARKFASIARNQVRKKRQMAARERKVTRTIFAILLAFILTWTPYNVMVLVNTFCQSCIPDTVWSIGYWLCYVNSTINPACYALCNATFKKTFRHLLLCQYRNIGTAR
The assay can be described thus: Alphascreen Surefire phospho-ERK1/2 functional assay, M4. The format is cell-based. The conditions noted are these: CHO cells stably expressing human M4; Emax relative to ACh.
Turning to `CCCN1C(=O)OC2(CCN(C3CC4(CCN(C(=O)OCC)C4)C3)CC2)C1CC` (single isomer, unassigned) [4-23 Isomer 3], the “M4 % Emax cf. ACh” value is on record as “(32) %”.

The same assay, now with this note: CHO cells stably expressing human M4; phospho-ERK1/2; read-out: pEC50 M4 (converted).
With `CCOC(=O)N1CC2(CCC(N3CCC4(CC3)OC(=O)NC4CC)C2)C1` (mixture of isomers) [8-1 mixture of diastereomers], the EC50 was 2 nM.
Same read-out and setting: under `COC(=O)N1CCC2(CC(N3CCC4(CC3)CNC(=O)O4)C2)C1` (single isomer, unassigned) [4-1 Isomer 2] stands 126 nM; under `CCN1NC(=O)CC12CCN(C1CC3(CCN(C(=O)OC)C3)C1)CC2` (single isomer, unassigned) [6-1 Isomer 2], 126 nM; under `CCCN1C(=O)OC2(CCN(C3CC4(CCN(C(=O)OCC)C4)C3)CC2)C1CC` (single isomer, unassigned) [4-23 Isomer 3], 50.1 nM.

Staying with this assay, now noted: CHO, read-out: M4 % Emax cf. ACh, CHO cells stably expressing human M4; Emax relative to ACh.
Take `CCOC(=O)N1CC2(CCC(N3CCC4(CC3)OC(=O)NC4CC)C2)C1` (mixture of isomers) [8-1 mixture of diastereomers]: the maximal effect (Emax) was found to be 70%.
Same read-out and setting: then `COC(=O)N1CCC2(CC(N3CCC4(CC3)CNC(=O)O4)C2)C1` (single isomer, unassigned) [4-1 Isomer 2], with 86%; and `CCN1NC(=O)CC12CCN(C1CC3(CCN(C(=O)OC)C3)C1)CC2` (single isomer, unassigned) [6-1 Isomer 2], with 68%.

Another assay deals with T3, human muscarinic M2 receptor (Homo sapiens, UniProt P08172).
T3 sequence (P08172 1-466): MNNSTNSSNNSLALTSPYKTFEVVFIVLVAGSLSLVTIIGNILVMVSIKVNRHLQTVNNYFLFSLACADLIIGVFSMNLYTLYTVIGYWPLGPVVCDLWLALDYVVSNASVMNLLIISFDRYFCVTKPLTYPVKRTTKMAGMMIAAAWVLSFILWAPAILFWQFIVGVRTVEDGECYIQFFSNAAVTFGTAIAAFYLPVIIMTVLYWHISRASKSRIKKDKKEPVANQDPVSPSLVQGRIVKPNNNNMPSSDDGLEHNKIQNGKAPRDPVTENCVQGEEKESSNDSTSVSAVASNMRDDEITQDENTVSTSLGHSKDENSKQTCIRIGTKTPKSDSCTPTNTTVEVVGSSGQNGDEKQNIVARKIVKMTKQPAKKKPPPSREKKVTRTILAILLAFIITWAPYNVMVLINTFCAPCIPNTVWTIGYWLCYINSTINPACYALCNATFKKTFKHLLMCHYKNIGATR
The assay can be described thus: Alphascreen Surefire phospho-ERK1/2 functional assay, M2. The conditions noted are these: CHO, read-out: M2 % Emax cf. ACh, CHO cells stably expressing human M2; Emax relative to ACh.
In the case of `CCOC(=O)N1CC2(CCC(N3CCC4(CC3)OC(=O)NC4CC)C2)C1` (mixture of isomers) [8-1 mixture of diastereomers], the Emax worked out at 0%.
Still for that read-out and setting: then `COC(=O)N1CCC2(CC(N3CCC4(CC3)CNC(=O)O4)C2)C1` (single isomer, unassigned) [4-1 Isomer 2], with 18%; and `CCN1NC(=O)CC12CCN(C1CC3(CCN(C(=O)OC)C3)C1)CC2` (single isomer, unassigned) [6-1 Isomer 2], with 13%.
Consider `CCCN1C(=O)OC2(CCN(C3CC4(CCN(C(=O)OCC)C4)C3)CC2)C1CC` (single isomer, unassigned) [4-23 Isomer 3], for which the Emax stood at 8%.

Staying with this assay, now noted: pEC50 M2, CHO cells stably expressing human M2; phospho-ERK1/2.
The compound `CCOC(=O)N1CC2(CCC(N3CCC4(CC3)OC(=O)NC4CC)C2)C1` (mixture of isomers) [8-1 mixture of diastereomers] had a pEC50 below 4.70.
`COC(=O)N1CCC2(CC(N3CCC4(CC3)CNC(=O)O4)C2)C1` (single isomer, unassigned) [4-1 Isomer 2]: the pEC50 was below 4.70.
`CCN1NC(=O)CC12CCN(C1CC3(CCN(C(=O)OC)C3)C1)CC2` (single isomer, unassigned) [6-1 Isomer 2] gave a pEC50 below 4.70.
On the same count and under the same terms, then `CCCN1C(=O)OC2(CCN(C3CC4(CCN(C(=O)OCC)C4)C3)CC2)C1CC` (single isomer, unassigned) [4-23 Isomer 3], with below 4.70.

The record behind these values is patent publication US10167284B2, “Spirocyclic compounds as agonists of the muscarinic M1 receptor and/or M4 receptor” (HEPTARES THERAPEUTICS LIMITED, priority 2015, dated 2019).
